Data taken from US20250176547A1, “AGRICULTURE COMPOSITION” (Nippon Kayaku Kabushiki Kaisha, priority 2022, published 2025).

Tests used:
Type in all cases: in vivo
Tetranychus urticae = assay: Biological Test Example 1: test for controlling Tetranychus urticae (leaf spray); settings: composition diluted 1000 times with water, 30 mL sprayed on kidney bean leaves, 25° C., two days after the treatment
Procedure: Kidney bean leaves were cut into squares that measured 2.5 cm on one side, and the cut leaves were placed on absorbent cotton moistened with water. Ten Tetranychus urticae […] were released thereon. 30 mL of each agricultural composition diluted 1000 times with water was sprayed on the kidney bean leaves by using a hand spray. After air drying, the bean leaves were transferred into a plastic cup and stored in a constant temperature chamber at 25° C. Two days after the treatment, the life and death of the imagoes was observed, and the death rate was calculated.

kidney bean leaves = assay: Phytotoxicity evaluation of kidney bean leaves after Test Example 2
Procedure: (§1) Kidney bean leaves were cut into squares that measured 2.5 cm on one side, and the cut leaves were placed on absorbent cotton moistened with water. Ten first instar larvae of Thrips palmi were released thereon. 30 mL of the agricultural composition diluted 500 times with water was sprayed on the kidney bean leaves using a hand spray. After air drying, the larvae were kept in a constant temperature chamber at 25° C. One day after the treatment, life and death was observed, and the death rate was calculated. In addition, the state of the kidney bean leaves after the test was observed, and the phytotoxicity was also evaluated.
Evaluation Criteria for Phytotoxicity
• −: No change on the leaf surface • ±: Slight damage is recognized on the leaf surface • +: Damage is recognized on part of the leaf surface • ++: Damage is recognized on the entire surface of the leaf surface

Thrips palmi = assay: Biological Test Example 2: test for controlling Thrips palmi (leaf spray); settings: first instar larvae; composition diluted 500 times with water, 30 mL sprayed on kidney bean leaves, 25° C., one day after the treatment
Procedure: as §1

CCCCCCCCCCCCN1CCCC1=O [Comparative Example 8, N-lauryl-2-pyrrolidone]
Test Example 1 Spider mite imagoes (death rate) (Tetranychus urticae): 100% | Test Example 2 Leaf shape phytotoxicity (kidney bean leaves; in vivo): +++ | Test Example 2 Thrip larvae (death rate) (Thrips palmi): 100%

Diglycerin monocaprylic acid ester [Comparative Example 1]
Test Example 1 Spider mite imagoes (death rate) (Tetranychus urticae): 60% | Test Example 2 Leaf shape phytotoxicity (kidney bean leaves; in vivo): − | Test Example 2 Thrip larvae (death rate) (Thrips palmi): 20%

N,N-dimethyl fatty acid (C8-10) amide [Comparative Example 4]
Test Example 2 Leaf shape phytotoxicity (kidney bean leaves; in vivo): ++

N,N-dimethyl fatty acid (C12-14) amide [Comparative Example 6]
Test Example 2 Leaf shape phytotoxicity (kidney bean leaves; in vivo): +++

Propylene glycol monolauric acid ester [Comparative Example 3]
Test Example 1 Spider mite imagoes (death rate) (Tetranychus urticae): 100% | Test Example 2 Leaf shape phytotoxicity (kidney bean leaves; kidney bean leaves after the test, composition diluted 500 times with water): − | Test Example 2 Thrip larvae (death rate) (Thrips palmi): 50%

Sorbitan monolauric acid ester [Comparative Example 2]
Test Example 1 Spider mite imagoes (death rate) (Tetranychus urticae): 0% | Test Example 2 Leaf shape phytotoxicity (kidney bean leaves; in vivo): − | Test Example 2 Thrip larvae (death rate) (Thrips palmi): 20%
